In the NIST ThermoML archive (doi:10.1016/j.jct.2006.10.008):
Numbers after ± are expanded uncertainties.

What was measured:
[1] = excess molar enthalpy (molar enthalpy of mixing); xn = mol fraction of the nth substance listed; conditions: 298.15 K, 101 kPa, Liquid, Calvet calorimetry
[2] = xn = mol fraction of the nth substance listed; conditions: 298.15 K, 101 kPa, Liquid

Question: For `CCCCCOC=O` [pentyl methanoate] + ClCCCCCl, which excess molar enthalpy ([1]; x1 = 0.0558) is on record?
Answer: -0.00368 ± 0.000215 kcal/mol

Question: And the excess molar enthalpy ([1]; x1 = 0.1297)?
Answer: -0.0102 ± 0.000263 kcal/mol

Question: What about the excess molar enthalpy ([1]; x1 = 0.2099) of the same molecule?
Answer: -0.0181 ± 0.000335 kcal/mol

Question: What about the excess molar enthalpy ([1]; x1 = 0.2822) of the same molecule?
Answer: -0.0275 ± 0.000406 kcal/mol

Question: What about the excess molar enthalpy ([1]; x1 = 0.3497) of the same molecule?
Answer: -0.0373 ± 0.000478 kcal/mol

Question: And the excess molar enthalpy ([1]; x1 = 0.4176)?
Answer: -0.0442 ± 0.000526 kcal/mol

Question: And the excess molar enthalpy ([1]; x1 = 0.4615)?
Answer: -0.0492 ± 0.000574 kcal/mol

Question: And the excess molar enthalpy ([1]; x1 = 0.4847)?
Answer: -0.0503 ± 0.000574 kcal/mol

Question: What about the excess molar enthalpy ([1]; x1 = 0.5352) of the same molecule?
Answer: -0.0522 ± 0.000598 kcal/mol

Question: What about the excess molar enthalpy ([1]; x1 = 0.5989) of the same molecule?
Answer: -0.0512 ± 0.000574 kcal/mol

Question: And the excess molar enthalpy ([1]; x1 = 0.6703)?
Answer: -0.0498 ± 0.000574 kcal/mol

Question: What about the excess molar enthalpy ([1]; x1 = 0.7496) of the same molecule?
Answer: -0.0436 ± 0.000526 kcal/mol

Question: What about the excess molar enthalpy ([1]; x1 = 0.8354) of the same molecule?
Answer: -0.0321 ± 0.00043 kcal/mol

Question: What about the excess molar enthalpy ([1]; x1 = 0.9293) of the same molecule?
Answer: -0.0167 ± 0.000311 kcal/mol

Question: What about the mass density ([2]; x1 = 0.0535) of the same molecule?
Answer: 1118.26 ± 0.56 kg/m3

Question: And the mass density ([2]; x1 = 0.1055)?
Answer: 1103.42 ± 0.53 kg/m3

Question: What about the mass density ([2]; x1 = 0.1566) of the same molecule?
Answer: 1089.12 ± 0.5 kg/m3

Question: And the mass density ([2]; x1 = 0.2106)?
Answer: 1074.27 ± 0.47 kg/m3

Question: And the mass density ([2]; x1 = 0.2635)?
Answer: 1060 ± 0.44 kg/m3

Question: What about the mass density ([2]; x1 = 0.3199) of the same molecule?
Answer: 1045.06 ± 0.41 kg/m3

Question: What about the mass density ([2]; x1 = 0.3768) of the same molecule?
Answer: 1030.28 ± 0.38 kg/m3

Question: And the mass density ([2]; x1 = 0.4344)?
Answer: 1015.59 ± 0.35 kg/m3

Question: What about the mass density ([2]; x1 = 0.4908) of the same molecule?
Answer: 1001.46 ± 0.33 kg/m3

Question: And the mass density ([2]; x1 = 0.5505)?
Answer: 986.81 ± 0.34 kg/m3

Question: What about the mass density ([2]; x1 = 0.6109) of the same molecule?
Answer: 972.26 ± 0.36 kg/m3

Question: What about the mass density ([2]; x1 = 0.6726) of the same molecule?
Answer: 957.67 ± 0.37 kg/m3

Question: And the mass density ([2]; x1 = 0.7351)?
Answer: 943.19 ± 0.39 kg/m3

Question: And the mass density ([2]; x1 = 0.7986)?
Answer: 928.74 ± 0.41 kg/m3

Question: What about the mass density ([2]; x1 = 0.8646) of the same molecule?
Answer: 914.02 ± 0.42 kg/m3

Question: What about the mass density ([2]; x1 = 0.9292) of the same molecule?
Answer: 899.89 ± 0.44 kg/m3

Question: Which results are given for `CCCCCOC=O` [pentyl methanoate] + ClCCCCl?
Answer: excess molar enthalpy ([1]; x1 = 0.0477): -0.00664 ± 0.000239 kcal/mol; excess molar enthalpy ([1]; x1 = 0.1093): -0.0151 ± 0.000311 kcal/mol; excess molar enthalpy ([1]; x1 = 0.1729): -0.0245 ± 0.000382 kcal/mol; excess molar enthalpy ([1]; x1 = 0.2358): -0.0341 ± 0.000454 kcal/mol; excess molar enthalpy ([1]; x1 = 0.2905): -0.0437 ± 0.000526 kcal/mol; excess molar enthalpy ([1]; x1 = 0.3427): -0.0529 ± 0.000598 kcal/mol; excess molar enthalpy ([1]; x1 = 0.3933): -0.0605 ± 0.000645 kcal/mol; excess molar enthalpy ([1]; x1 = 0.4564): -0.0661 ± 0.000693 kcal/mol; excess molar enthalpy ([1]; x1 = 0.5122): -0.0678 ± 0.000717 kcal/mol; excess molar enthalpy ([1]; x1 = 0.5719): -0.0682 ± 0.000717 kcal/mol; excess molar enthalpy ([1]; x1 = 0.6452): -0.0655 ± 0.000693 kcal/mol; excess molar enthalpy ([1]; x1 = 0.7254): -0.0585 ± 0.000645 kcal/mol; excess molar enthalpy ([1]; x1 = 0.8109): -0.045 ± 0.00055 kcal/mol; excess molar enthalpy ([1]; x1 = 0.9161): -0.0244 ± 0.000382 kcal/mol; mass density ([2]; x1 = 0.0471): 1159.68 ± 0.64 kg/m3; mass density ([2]; x1 = 0.0911): 1142.71 ± 0.61 kg/m3; mass density ([2]; x1 = 0.1377): 1125.33 ± 0.57 kg/m3; mass density ([2]; x1 = 0.1848): 1108.29 ± 0.54 kg/m3; mass density ([2]; x1 = 0.2341): 1091.1 ± 0.5 kg/m3; mass density ([2]; x1 = 0.3403): 1056.06 ± 0.43 kg/m3; mass density ([2]; x1 = 0.4528): 1021.65 ± 0.37 kg/m3; mass density ([2]; x1 = 0.5122): 1004.48 ± 0.33 kg/m3; mass density ([2]; x1 = 0.5737): 987.37 ± 0.34 kg/m3; mass density ([2]; x1 = 0.6379): 970.23 ± 0.36 kg/m3; mass density ([2]; x1 = 0.7034): 953.41 ± 0.38 kg/m3; mass density ([2]; x1 = 0.7721): 936.49 ± 0.4 kg/m3; mass density ([2]; x1 = 0.8438): 919.53 ± 0.42 kg/m3; mass density ([2]; x1 = 0.9188): 902.44 ± 0.44 kg/m3

Question: Which excess molar enthalpy ([1]; x2 = 0.0521) does the source give for `ClCCCCl` [1,3-dichloropropane] + CCCCOC=O here?
Answer: -0.00691 ± 0.000239 kcal/mol

Question: And the excess molar enthalpy ([1]; x2 = 0.1142)?
Answer: -0.0126 ± 0.000287 kcal/mol

Question: What about the excess molar enthalpy ([1]; x2 = 0.1765) of the same molecule?
Answer: -0.0207 ± 0.000359 kcal/mol

Question: And the excess molar enthalpy ([1]; x2 = 0.2379)?
Answer: -0.0303 ± 0.00043 kcal/mol

Question: What about the excess molar enthalpy ([1]; x2 = 0.2982) of the same molecule?
Answer: -0.0385 ± 0.000478 kcal/mol

Question: What about the excess molar enthalpy ([1]; x2 = 0.3557) of the same molecule?
Answer: -0.049 ± 0.000574 kcal/mol

Question: And the excess molar enthalpy ([1]; x2 = 0.4108)?
Answer: -0.0593 ± 0.000645 kcal/mol

Question: What about the excess molar enthalpy ([1]; x2 = 0.4602) of the same molecule?
Answer: -0.0664 ± 0.000693 kcal/mol

Question: What about the excess molar enthalpy ([1]; x2 = 0.5057) of the same molecule?
Answer: -0.0712 ± 0.000741 kcal/mol

Question: What about the excess molar enthalpy ([1]; x2 = 0.5508) of the same molecule?
Answer: -0.0716 ± 0.000741 kcal/mol

Question: And the excess molar enthalpy ([1]; x2 = 0.6114)?
Answer: -0.069 ± 0.000717 kcal/mol

Question: And the excess molar enthalpy ([1]; x2 = 0.6872)?
Answer: -0.0624 ± 0.000669 kcal/mol

Question: What about the excess molar enthalpy ([1]; x2 = 0.7608) of the same molecule?
Answer: -0.0527 ± 0.000598 kcal/mol

Question: And the excess molar enthalpy ([1]; x2 = 0.8457)?
Answer: -0.0376 ± 0.000478 kcal/mol

Question: What about the excess molar enthalpy ([1]; x2 = 0.9261) of the same molecule?
Answer: -0.0206 ± 0.000359 kcal/mol

Question: What about the mass density ([2]; x2 = 0.0505) of the same molecule?
Answer: 1161.51 ± 0.64 kg/m3

Question: What about the mass density ([2]; x2 = 0.101) of the same molecule?
Answer: 1144.56 ± 0.61 kg/m3

Question: What about the mass density ([2]; x2 = 0.1523) of the same molecule?
Answer: 1127.68 ± 0.58 kg/m3

Question: And the mass density ([2]; x2 = 0.2044)?
Answer: 1110.9 ± 0.54 kg/m3

Question: What about the mass density ([2]; x2 = 0.2581) of the same molecule?
Answer: 1094 ± 0.51 kg/m3

Question: And the mass density ([2]; x2 = 0.313)?
Answer: 1077.09 ± 0.48 kg/m3

Question: And the mass density ([2]; x2 = 0.3693)?
Answer: 1060.1 ± 0.44 kg/m3

Question: What about the mass density ([2]; x2 = 0.4847) of the same molecule?
Answer: 1026.45 ± 0.38 kg/m3

Question: What about the mass density ([2]; x2 = 0.5445) of the same molecule?
Answer: 1009.59 ± 0.34 kg/m3

Question: What about the mass density ([2]; x2 = 0.6675) of the same molecule?
Answer: 976.01 ± 0.35 kg/m3

Question: What about the mass density ([2]; x2 = 0.7309) of the same molecule?
Answer: 959.34 ± 0.37 kg/m3

Question: And the mass density ([2]; x2 = 0.7964)?
Answer: 942.5 ± 0.39 kg/m3

Question: What about the mass density ([2]; x2 = 0.862) of the same molecule?
Answer: 925.98 ± 0.41 kg/m3

Question: What about the mass density ([2]; x2 = 0.9296) of the same molecule?
Answer: 909.27 ± 0.43 kg/m3

Question: Which excess molar enthalpy ([1]; x1 = 0.0489) does the source give for `CCCOC=O` [propyl methanoate] + ClCCCl here?
Answer: -0.00894 ± 0.000263 kcal/mol

Question: And the excess molar enthalpy ([1]; x1 = 0.1034)?
Answer: -0.0201 ± 0.000359 kcal/mol

Question: And the excess molar enthalpy ([1]; x1 = 0.1594)?
Answer: -0.0337 ± 0.000454 kcal/mol

Question: And the excess molar enthalpy ([1]; x1 = 0.2211)?
Answer: -0.0473 ± 0.00055 kcal/mol

Question: And the excess molar enthalpy ([1]; x1 = 0.28)?
Answer: -0.0608 ± 0.000669 kcal/mol

Question: And the excess molar enthalpy ([1]; x1 = 0.3363)?
Answer: -0.0734 ± 0.000765 kcal/mol

Question: What about the excess molar enthalpy ([1]; x1 = 0.3886) of the same molecule?
Answer: -0.0843 ± 0.000837 kcal/mol

Question: And the excess molar enthalpy ([1]; x1 = 0.4382)?
Answer: -0.09338 ± 0.000908 kcal/mol

Question: What about the excess molar enthalpy ([1]; x1 = 0.483) of the same molecule?
Answer: -0.1003 ± 0.000956 kcal/mol

Question: What about the excess molar enthalpy ([1]; x1 = 0.5155) of the same molecule?
Answer: -0.104 ± 0.00098 kcal/mol

Question: What about the excess molar enthalpy ([1]; x1 = 0.5716) of the same molecule?
Answer: -0.1046 ± 0.001 kcal/mol

Question: And the excess molar enthalpy ([1]; x1 = 0.6361)?
Answer: -0.1004 ± 0.000956 kcal/mol

Question: What about the excess molar enthalpy ([1]; x1 = 0.7083) of the same molecule?
Answer: -0.08982 ± 0.000884 kcal/mol

Question: What about the excess molar enthalpy ([1]; x1 = 0.7725) of the same molecule?
Answer: -0.0749 ± 0.000765 kcal/mol

Question: And the excess molar enthalpy ([1]; x1 = 0.8488)?
Answer: -0.0545 ± 0.000621 kcal/mol

Question: What about the excess molar enthalpy ([1]; x1 = 0.9302) of the same molecule?
Answer: -0.0292 ± 0.00043 kcal/mol

Question: And the mass density ([2]; x1 = 0.0538)?
Answer: 1223.09 ± 0.77 kg/m3

Question: And the mass density ([2]; x1 = 0.1017)?
Answer: 1203.75 ± 0.73 kg/m3

Question: What about the mass density ([2]; x1 = 0.1515) of the same molecule?
Answer: 1184.04 ± 0.69 kg/m3

Question: And the mass density ([2]; x1 = 0.2043)?
Answer: 1163.71 ± 0.65 kg/m3

Question: And the mass density ([2]; x1 = 0.2575)?
Answer: 1143.76 ± 0.61 kg/m3

Question: What about the mass density ([2]; x1 = 0.3685) of the same molecule?
Answer: 1103.98 ± 0.53 kg/m3

Question: And the mass density ([2]; x1 = 0.4248)?
Answer: 1084.54 ± 0.49 kg/m3

Question: What about the mass density ([2]; x1 = 0.4826) of the same molecule?
Answer: 1065.09 ± 0.45 kg/m3

Question: And the mass density ([2]; x1 = 0.5426)?
Answer: 1045.46 ± 0.41 kg/m3

Question: What about the mass density ([2]; x1 = 0.6034) of the same molecule?
Answer: 1026.11 ± 0.38 kg/m3

Question: And the mass density ([2]; x1 = 0.6652)?
Answer: 1006.9 ± 0.34 kg/m3

Question: And the mass density ([2]; x1 = 0.7294)?
Answer: 987.38 ± 0.34 kg/m3

Question: What about the mass density ([2]; x1 = 0.794) of the same molecule?
Answer: 968.29 ± 0.36 kg/m3

Question: What about the mass density ([2]; x1 = 0.8599) of the same molecule?
Answer: 949.22 ± 0.38 kg/m3

Question: What about the mass density ([2]; x1 = 0.9286) of the same molecule?
Answer: 929.85 ± 0.41 kg/m3
